We go through 21 compounds from patent publication US20230373985A1 (Origenis Gmbh, priority 2020, published 2023).

Assay [1] deals with T1, wt human TYK2, catalytic site (Homo sapiens, UniProt P29597).
T1 construct: wt human TYK2, catalytic site; purchased SignalChem
T1 sequence (P29597 897-1176 limits assumed): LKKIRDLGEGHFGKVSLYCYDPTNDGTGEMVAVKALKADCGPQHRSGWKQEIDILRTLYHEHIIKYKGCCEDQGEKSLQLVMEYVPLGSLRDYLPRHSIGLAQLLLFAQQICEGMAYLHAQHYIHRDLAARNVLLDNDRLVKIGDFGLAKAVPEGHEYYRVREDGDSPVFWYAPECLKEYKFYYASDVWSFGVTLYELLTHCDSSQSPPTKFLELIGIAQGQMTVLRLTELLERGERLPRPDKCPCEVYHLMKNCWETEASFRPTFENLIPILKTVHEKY
In words: HTRF KinEASE assay, TYK2. The class given is biochemical. As to conditions: 1 μM ATP; read-out: IC50, Activity Toward TYK2. The method, boiled down: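 Kinase reaction run at room temperature for at least 30 min: 2 nM TYK2 with 1 μM ATP, or 1 nM JAK2 with 100 μM ATP, each with 1 μM biotin-TK substrate. Phosphorylation detected by HTRF (60 min antibody/XL665) and evaluated from emission ratios.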
(In general: TR-FRET usually uses a lanthanide donor and a delayed reading to cut background.)

The target in assay [2] is T2, wt human JAK1, catalytic site (Homo sapiens, UniProt P23458).
T2 construct: wt human JAK1, catalytic site; purchased ThermoFisher
T2 sequence (P23458 875-1153 limits assumed): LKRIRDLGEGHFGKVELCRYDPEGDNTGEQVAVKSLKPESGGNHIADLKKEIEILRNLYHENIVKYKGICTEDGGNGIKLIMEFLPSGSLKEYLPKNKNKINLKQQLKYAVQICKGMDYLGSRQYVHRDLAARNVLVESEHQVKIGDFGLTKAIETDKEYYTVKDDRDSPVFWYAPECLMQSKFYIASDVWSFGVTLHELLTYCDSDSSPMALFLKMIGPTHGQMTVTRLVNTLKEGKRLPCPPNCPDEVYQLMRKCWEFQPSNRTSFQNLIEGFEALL
In words: HTRF KinEASE assay, JAK1. To be noted: 2.5 μM ATP; read-out: IC50, Activity Toward JAK1. The format is biochemical. In short, it runs like this: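 Compounds in DMSO dilution were mixed with kinase, biotin-TK substrate and ATP and reacted for ≥30 min at room temperature. Detection reagents (antibody, streptavidin-XL665) were read 60 min later as HTRF, with emission ratios analysed per KinEASE protocol.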

For orientation: IC50 means the concentration needed to halve the response being measured.

Each structure is given as a SMILES string.

Take `NC(=O)c1nn(-c2c(Cl)cccc2Cl)cc1Nc1ccc(-c2nnccc2C(F)(F)F)cc1` [compound 69, 1-(2,6-dichlorophenyl)-4-((4-(4-(trifluoromethyl)pyridazin-3-yl)phenyl)amino)-1H-pyrazole-3-carboxamide]: the IC50 in assay [1] lay within 0.01 to 0.1 µM; in assay [2], 0.1 to 1 µM.

In the case of `CCS(=O)(=O)Nc1ccc(Nc2cn(-c3c(Cl)cccc3Cl)nc2C(N)=O)cc1` [compound 270, 1-(2,6-dichlorophenyl)-4-((4-(ethylsulfonamido)phenyl)amino)-1H-pyrazole-3-carboxamide], the IC50 in assay [1] and in assay [2] was 0.01 to 0.1 µM throughout.

On to `NC(=O)c1nn(-c2c(Cl)cccc2Cl)cc1Nc1ccc(C(=O)N2CCSCC2)cc1` [compound 467, 1-(2,6-dichlorophenyl)-4-((4-(thiomorpholine-4-carbonyl)phenyl)amino)-1H-pyrazole-3-carboxamide], for which the IC50 in assay [1] and in assay [2] was < 0.01 µM throughout.

Regarding `CC(C)n1cc(Nc2cn(-c3c(Cl)cccc3Cl)nc2C(N)=O)cn1` [compound 378, 1-(2,6-dichlorophenyl)-4-((1-isopropyl-1H-pyrazol-4-yl)amino)-1H-pyrazole-3-carboxamide], the IC50 in assay [1] fell in the range of 0.01 to 0.1 µM; in assay [2] it was 0.1 to 1 µM.

As for `CC1(C)CN(C(=O)c2ccc(Nc3nn(-c4c(Cl)cccc4Cl)nc3C(N)=O)nc2)C1` [compound 165, 2-(2,6-dichlorophenyl)-5-((5-(3,3-dimethylazetidine-1-carbonyl)pyridin-2-yl)amino)-2H-1,2,3-triazole-4-carboxamide], the half-inhibitory concentration (IC50) in assay [1] lay in the range of 0.01 to 0.1 µM; in assay [2], 0.1 to 1 µM.

Consider `NC(=O)c1nn(-c2c(Cl)cccc2Cl)nc1Nc1cnn(CC(=O)N2CCS(=O)(=O)CC2)c1` [compound 174, 2-(2,6-dichlorophenyl)-5-((1-(2-(1,1-dioxidothiomorpholino)-2-oxoethyl)-1H-pyrazol-4-yl)amino)-2H-1,2,3-triazole-4-carboxamide], for which the IC50 was 0.01 to 0.1 µM in assay [1] and < 0.01 µM in assay [2].

As to `COCc1ncnn1-c1ccc(Nc2cn(-c3c(Cl)cccc3Cl)nc2C(N)=O)cc1` [compound 300, 1-(2,6-dichlorophenyl)-4-((4-(5-(methoxymethyl)-1H-1,2,4-triazol-1-yl)phenyl)amino)-1H-pyrazole-3-carboxamide], the results for the IC50 in assay [1] and in assay [2] were 0.01 to 0.1 µM and 0.1 to 1 µM, respectively.

Turning to `NC(=O)c1nn(-c2c(Cl)cccc2Cl)cc1Nc1ccc(-n2nc(C(F)(F)F)nc2CO)nc1` [compound 385, 1-(2,6-dichlorophenyl)-4-((6-(5-(hydroxymethyl)-3-(trifluoromethyl)-1H-1,2,4-triazol-1-yl)pyridin-3-yl)amino)-1H-pyrazole-3-carboxamide], the IC50 in assay [1] was 0.01 to 0.1 µM; in assay [2] it was 0.1 to 1 µM.

On to `NC(=O)c1nn(-c2c(Cl)cccc2Cl)nc1Nc1ccc(-n2cc3c(n2)CCOC3)cc1` [compound 111, 2-(2,6-Dichloro-phenyl)-5-[4-(6,7-dihydro-4H-pyrano[4,3-c]pyrazol-2-yl)-phenylamino]-2H-[1,2,3]triazole-4-carboxylic acid amide], for which the IC50 in assay [1] and in assay [2] was 0.1 to 1 µM throughout.

For the compound `CS(=O)(=O)Nc1ccc(Nc2cn(-c3c(Cl)cccc3Cl)nc2C(N)=O)cc1` [compound 271, 1-(2,6-dichlorophenyl)-4-((4-(methylsulfonamido)phenyl)amino)-1H-pyrazole-3-carboxamide], the IC50 in assay [1] and in assay [2] was 0.01 to 0.1 µM throughout.

Take `NC(=O)c1nn(-c2c(Cl)cccc2Cl)cc1Nc1ccc(-n2ccccc2=O)nc1` [compound 390, 1-(2,6-dichlorophenyl)-4-((2-oxo-2H-[1,2′-bipyridin]-5′-yl)amino)-1H-pyrazole-3-carboxamide]: the IC50 in assay [1] and in assay [2] was 0.1 to 1 µM throughout.

On to `COCCCNC(=O)c1ccc(Nc2cn(-c3c(Cl)cccc3Cl)nc2C(N)=O)cc1` [compound 420, 1-(2,6-dichlorophenyl)-4-((4-((3-methoxypropyl)carbamoyl)phenyl)amino)-1H-pyrazole-3-carboxamide], for which the IC50 in assay [1] and in assay [2] was 0.1 to 1 µM in each case.

For the compound `NC(=O)c1nn(-c2c(Cl)cccc2Cl)cc1Nc1ccc(-n2cnc(Cl)n2)cc1` [compound 79, 4-((4-(3-chloro-1H-1,2,4-triazol-1-yl)phenyl)amino)-1-(2,6-dichlorophenyl)-1H-pyrazole-3-carboxamide], the IC50 in assay [1] lay within 0.01 to 0.1 µM; in assay [2], 0.1 to 1 µM.

In the case of `NC(=O)c1nn(-c2c(Cl)cccc2Cl)nc1Nc1ccc(C(=O)N2CCS(=O)(=O)CC2)cn1` [compound 160, 2-(2,6-dichlorophenyl)-5-((5-(1,1-dioxidothiomorpholine-4-carbonyl)pyridin-2-yl)amino)-2H-1,2,3-triazole-4-carboxamide], the IC50 is < 0.01 µM in assay [1] and 0.01 to 0.1 µM in assay [2].

Consider `NC(=O)c1nn(-c2c(Cl)cccc2Cl)cc1Nc1ccc(N2CCOCC2)cn1` [compound 428, 1-(2,6-dichlorophenyl)-4-((5-morpholinopyridin-2-yl)amino)-1H-pyrazole-3-carboxamide], for which the IC50 in assay [1] and in assay [2] was 0.1 to 1 µM each time.

`COCCn1cc(C(F)(F)F)nc1-c1ccc(Nc2nn(-c3c(Cl)cccc3Cl)nc2C(N)=O)cc1` [compound 118, 2-(2,6-dichlorophenyl)-5-((4-(1-(2-methoxyethyl)-4-(trifluoromethyl)-1H-imidazol-2-yl)phenyl)amino)-2H-1,2,3-triazole-4-carboxamide]: the IC50 in assay [1] lay in the range of 0.1 to 1 µM; in assay [2] it was 0.01 to 0.1 µM.

Regarding `COc1cc(Cl)c(-n2nc(Nc3ccc(C(=O)N4CCSCC4)cc3)c(C(N)=O)n2)c(Cl)c1` [compound 176, 2-(2,6-dichloro-4-methoxyphenyl)-5-((4-(thiomorpholine-4-carbonyl)phenyl)amino)-2H-1,2,3-triazole-4-carboxamide], the values for the IC50 in assay [1] and in assay [2] were 0.1 to 1 µM and 0.01 to 0.1 µM, respectively.

Consider `NC(=O)c1nn(-c2c(Cl)cccc2Cl)cc1Nc1cnn(CC(=O)N2CCOCC2)c1` [compound 461, 1-(2,6-dichlorophenyl)-4-((1-(2-morpholino-2-oxoethyl)-1H-pyrazol-4-yl)amino)-1H-pyrazole-3-carboxamide], for which the IC50 in assay [1] and in assay [2] was 0.01 to 0.1 µM throughout.

For the compound `Cc1nc(C(F)(F)F)nn1-c1ccc(Nc2cn(-c3c(Cl)cccc3Cl)nc2C(N)=O)cc1` [compound 275, 1-(2,6-dichlorophenyl)-4-((4-(5-methyl-3-(trifluoromethyl)-1H-1,2,4-triazol-1-yl)phenyl)amino)-1H-pyrazole-3-carboxamide], the figures for the IC50 in assay [1] and in assay [2] were < 0.01 µM and 0.01 to 0.1 µM, respectively.

Take `CC(C)n1cnnc1-c1ccc(Nc2nn(-c3c(Cl)cccc3Cl)nc2C(N)=O)cc1` [compound 125, 2-(2,6-dichlorophenyl)-5-((4-(4-isopropyl-4H-1,2,4-triazol-3-yl)phenyl)amino)-2H-1,2,3-triazole-4-carboxamide]: the IC50 in assay [1] and in assay [2] was 0.01 to 0.1 µM each time.

As to `Cn1ccc(Nc2cn(-c3c(Cl)cccc3Cl)nc2C(N)=O)cc1=O` [compound 381, 1-(2,6-dichlorophenyl)-4-((1-methyl-2-oxo-1,2-dihydropyridin-4-yl)amino)-1H-pyrazole-3-carboxamide], the IC50 in assay [1] and in assay [2] was 0.1 to 1 µM each time.
